Test in all cases: NCI-60 cell line screen, 48 h
The subject of experiment [1] is SW-620 colon.
The test system of experiment [2] is M14 melanoma.
Experiment [3] deals with ACHN renal.
The subject of experiment [4] is NCI-H226 lung.
Experiment [5] concerns SK-MEL-28 melanoma.
The test system of experiment [6] is HOP-62 NSCLC.
Experiment [7] has as its system MOLT-4 leukemia.
Experiment [8] concerns HOP-92 NSCLC.
Experiment [9] relates to U251 CNS.
The subject of experiment [10] is SN12C renal.

SMILES strings stand for the structures. “And” between values parts separate entries of the source, which are not always exact repeats. Equal entries are not always repeated.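 A five-concentration, 48-hour dose response in 96-well plates underlies each endpoint, interpolated linearly between surrounding concentrations. At the GI50, growth is halved. TGI is the concentration that stops growth completely.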

Regarding `Cn1c(=O)c2c(nc(Nc3cc(=O)[nH]c(=O)[nH]3)n2Cc2ccccc2)n(C)c1=O`, the GI50 in experiment [1], in experiment [2], in [3], in experiment [4], in experiment [5] and in experiment [6] was more than 100 µM in each case. For the same molecule, the GI50 was more than 100 µM in experiment [7], 7.51 µM in experiment [8], more than 100 µM in experiment [9] and more than 100 µM in experiment [10]. For the same molecule, the TGI in experiment [1], in experiment [2], in experiment [3], in experiment [4], in experiment [5] and in [6] was more than 100 µM throughout. The TGI in experiment [7], in experiment [8], in experiment [9] and in [10] was more than 100 µM throughout.

For the molecule `C=C(C=O)[C@@H]1C2OC(=O)C(=C)[C@@H]2CC(O)[C@@]1(C)CC` (stereo not given in full), the TGI in experiment [1] was 11.8 µM; in experiment [2] it was 19.1 µM; in experiment [3], 27.1 µM; in [4] it was 59.8 µM; in experiment [5] it was 12.5 µM; in experiment [6], more than 100 µM. For the same molecule, the TGI in [7] is 9.08 µM; in [8] it was 4.19 µM; in experiment [9] it was 32.4 µM; in [10], 32.6 µM.

As to `C=C(C=O)C1CCC2(C(=O)O)CCC3(C)C(CCC4C5(C)CCC(O)C(C)(C)C5CCC43C)C12` (stereo not given), the GI50 was 1.99 µM in experiment [1]; 2.23 µM in experiment [2]; 1.69 µM in experiment [3]; 14.3 µM in [4]; 1.96 µM in [5]; 4.93 µM in experiment [6]. In addition, the GI50 in experiment [7] was 3.79 µM; in [8], 19.7 µM; in experiment [9], 1.64 µM; in experiment [10], 4.09 µM. Besides, the TGI in [1] is 5.07 µM; in experiment [2], 6.92 µM; in experiment [3], 3.23 µM; in experiment [4] it was more than 100 µM; in [5] it was 4.62 µM; in [6], 19.7 µM. For the same molecule, the TGI in experiment [7] is more than 100 µM; in [8], 64.6 µM; in experiment [9] it was 3.74 µM; in [10], more than 89.9 µM.

With `COc1ccc(OC)c(NC(=O)C(=O)NNC(=O)c2sc(NNC(C)=O)nc2C)c1`, the TGI in experiment [1] was 46.6 µM; in experiment [2], more than 100 µM; in experiment [3] it was 96.1 µM; in [4], more than 100 µM; in experiment [5], more than 100 µM; in experiment [6], more than 100 µM. Besides, the TGI in [7] was 47.1 µM; in experiment [8], 39.2 µM; in experiment [9] it was more than 100 µM; in experiment [10] it was more than 100 µM.

`CC[C@]12C=CCN3CC[C@@]4(c5ccc(OC)cc5N(C)[C@H]4[C@@](O)(C(=O)OC)[C@@H]1OC(=O)CCC[P+](c1ccccc1)(c1ccccc1)c1ccccc1)[C@@H]32`: the GI50 in experiment [1] was 1.01 µM and 0.749 µM; in [2], 0.762 µM and 1.05 µM; in experiment [3], 5.32 µM and 7.58 µM; in experiment [4], 1.91 µM and 1.93 µM; in experiment [5] it was 0.274 µM and 0.442 µM; in [6] it was 1.84 µM and 2.18 µM. The GI50 in experiment [7] is 1.04 µM and 1.1 µM; in experiment [8] it was 0.0934 µM and 0.241 µM; in [9], 0.487 µM and 0.336 µM; in experiment [10], 0.719 µM and 0.491 µM. The TGI in experiment [1] was 7.04 µM and 11.4 µM; in [2] it was 2.93 µM and 2.85 µM; in [3], 14.5 µM and 20.1 µM; in [4], 8.62 µM and 12.4 µM; in experiment [5], 1.06 µM and 1.67 µM; in [6], 7.71 µM and 7.08 µM. In addition, the TGI is 4.75 µM and 3.68 µM in [7]; 0.78 µM and 0.946 µM in experiment [8]; 6.59 µM and 2.64 µM in experiment [9]; 5.45 µM and 6.66 µM in experiment [10].

For the molecule `CC/C(=C(/c1ccc(OCCN(C)C)cc1)c1ccc(OC(=O)CCCCC(=O)c2c(C)[nH]c(/C=C3\N=C(c4ccc[nH]4)C=C3OC)c2C)cc1)c1ccccc1`, the GI50 was 3.16 µM in experiment [1]; 1.84 µM in experiment [2]; 4.84 µM in experiment [3]; 14.2 µM in experiment [4]; 11.6 µM in experiment [5]; 12.3 µM in experiment [6]. The GI50 in [7] is 1.73 µM; in experiment [8] it was 1.12 µM; in experiment [9], 5.22 µM; in experiment [10], 5.39 µM. The TGI in [1] is 11.4 µM; in experiment [2], 4 µM; in experiment [3] it was 22.8 µM; in experiment [4], 34.3 µM; in [5], 23.7 µM; in [6], 24.7 µM. For the same molecule, the TGI stood at 24.8 µM in experiment [7], 6.28 µM in experiment [8], 18.3 µM in experiment [9] and 21.4 µM in experiment [10].

Take `COc1cc(Nc2cn[nH]c2-c2ccc(Cl)cc2)cc(OC)c1OC`: the GI50 in experiment [1] was 3.87 µM; in [2], 2.5 µM; in experiment [3], 7.41 µM; in [4] it was 11.7 µM; in experiment [5], 6.45 µM; in [6], 6.91 µM. Besides, the GI50 in experiment [7] is 3.65 µM; in experiment [8] it was 2.73 µM; in experiment [9], 4.91 µM; in [10], 8.68 µM. In addition, the TGI is 23.7 µM in [1]; 9.41 µM in [2]; more than 76.8 µM in experiment [3]; 30.4 µM in experiment [4]; 56.7 µM in experiment [5]; 44.5 µM in experiment [6]. Besides, the TGI was more than 80.2 µM in experiment [7], 33.4 µM in [8], 33.3 µM in [9] and more than 100 µM in experiment [10].

As to `O=C1CCCC/C(=C/c2ccccc2)N1`, the TGI in experiment [1], in experiment [2], in experiment [3], in experiment [4], in experiment [5] and in experiment [6] was more than 100 µM each time. The TGI in [7], in experiment [8], in [9] and in experiment [10] was more than 100 µM each time.

On to `Cn1cc(C2=C(c3ccc4ccccc4c3)C(=O)NC2=O)c2ccccc21`, for which the GI50 in experiment [1] is 8.28 µM; in [2], more than 21 µM; in experiment [3], more than 25 µM; in experiment [4] it was more than 25 µM; in experiment [5], more than 25 µM; in experiment [6], more than 25 µM. Moreover, the GI50 was more than 20.1 µM in experiment [7], more than 25 µM in [8], more than 25 µM in experiment [9] and more than 25 µM in experiment [10]. In addition, the TGI in [1], in experiment [2], in experiment [3], in experiment [4], in experiment [5] and in [6] was more than 25 µM in each case. In addition, the TGI in experiment [7], in [8], in experiment [9] and in experiment [10] was more than 25 µM throughout.

Values taken from PubChem BioAssay (NCI).
